According to ChEMBL document CHEMBL1201862, “PubChem BioAssay data set” (2004):
Calls of active or inactive are those of the source.

Experiments:
[1] = target: T1, COUP transcription factor 2 (Homo sapiens, UniProt P24468); assay: Luminescence-based cell-based high throughput dose response assay to identify inhibitors of COUP-TFII (NR2F2).; assay type: functional;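 also: HEK293 cells transiently cotransfected with COUP-TFII expression vector and reporter; luciferase reporter luminescence driven by COUP-TFII from the pX2-168 reporter plasmid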
T1 sequence (P24468 whole entry): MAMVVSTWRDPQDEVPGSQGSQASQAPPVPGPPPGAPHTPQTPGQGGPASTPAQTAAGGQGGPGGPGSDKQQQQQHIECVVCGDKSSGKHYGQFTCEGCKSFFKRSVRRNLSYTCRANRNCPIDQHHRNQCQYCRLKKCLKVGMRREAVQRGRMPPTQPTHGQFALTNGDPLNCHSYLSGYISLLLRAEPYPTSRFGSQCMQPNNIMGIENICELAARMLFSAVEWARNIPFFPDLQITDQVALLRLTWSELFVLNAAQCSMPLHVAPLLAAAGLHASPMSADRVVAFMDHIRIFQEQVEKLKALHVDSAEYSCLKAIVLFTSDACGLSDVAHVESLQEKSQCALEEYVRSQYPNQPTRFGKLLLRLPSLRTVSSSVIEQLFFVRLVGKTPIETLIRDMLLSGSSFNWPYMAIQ

[2] = target: Tumor necrosis factor (Homo sapiens, UniProt P01375); assay: analog potency on TNFa NF-kB signaling – cell-based, revised, SAR follow-up (AID 2337); assay type: functional
[3] = target: T2, Serine/threonine-protein phosphatase (Candida dubliniensis (strain CD36 / CBS 7987 / NCPF 3949 / NRRLY-17841) (Yeast), UniProt B9W6M3); assay: blockers of CaCl2-induced CDRE-lacZ signaling – S. cerevisiae, luminescence, secondary, dose response (AID 2388); assay type: functional, cell-based;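 also: yeast reporter cells carrying a calcineurin-responsive lacZ construct stimulated with calcium chloride; luminescent beta-galactosidase reporter signal in whole cells rather than isolated phosphatase activity; potency for inhibition where a drop in reporter signal means calcineurin blockade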
T2 sequence (B9W6M3 whole entry): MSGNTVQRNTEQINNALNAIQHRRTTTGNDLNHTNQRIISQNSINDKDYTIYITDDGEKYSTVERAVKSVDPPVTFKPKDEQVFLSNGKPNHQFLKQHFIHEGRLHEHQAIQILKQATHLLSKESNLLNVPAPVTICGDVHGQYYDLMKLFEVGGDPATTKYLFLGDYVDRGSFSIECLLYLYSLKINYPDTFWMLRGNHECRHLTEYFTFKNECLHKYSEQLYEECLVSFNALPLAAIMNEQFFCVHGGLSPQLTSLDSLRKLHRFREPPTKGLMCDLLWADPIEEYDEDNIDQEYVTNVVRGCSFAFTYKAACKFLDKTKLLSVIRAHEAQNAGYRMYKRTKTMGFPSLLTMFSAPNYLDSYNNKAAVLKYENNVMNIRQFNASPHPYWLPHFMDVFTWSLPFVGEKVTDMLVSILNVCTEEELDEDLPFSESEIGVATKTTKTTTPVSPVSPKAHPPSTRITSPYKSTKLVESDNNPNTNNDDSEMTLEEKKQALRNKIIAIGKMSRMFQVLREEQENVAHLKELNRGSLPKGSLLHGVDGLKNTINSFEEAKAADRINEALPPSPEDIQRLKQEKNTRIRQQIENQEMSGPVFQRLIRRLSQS

[4] = target: ATP-dependent molecular chaperone HSP82 (Candida albicans (strain WO-1) (Yeast), UniProt C4YTQ8); assay: steroid-induced GRE reporter decrease in yeast – S. cerevisiae, luminescence, Hsp90 inhibitor project, dose response (AID 2400); assay type: functional, cell-based;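 also: beta-galactosidase luminescence from glucocorticoid response element reporter as proxy for Hsp90 function; inhibitor potency where signal loss means Hsp90 inhibition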
[5] = system: HEK293; assay: cells; conditions: Homo sapiens
[6] = HEK-293T viability loss after treatment – luminescence, T-cell screen hits, cytotoxicity control for TCR NF-kB inhibitor project, dose response (AID 489026); assay type: functional, cell-based;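 also: cells exposed to compound about 14 hours before the viability readout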
[7] = NIH-3T3 fibroblast cytotoxicity, dose response, cytotoxicity control, cell-based, fluorescence, Alamar Blue, secondary assay (AID 2327); assay type: functional;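 also: NIH-3T3 mouse fibroblasts cultured with fluconazole at 8 µg/mL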
[8] = fluconazole-exposed Candida albicans growth modulators – fluorescence, retest, confirmation (AID 2467); assay type: functional, cell-based
[9] = target: T3, Nucleotide-binding oligomerization domain-containing protein 1 (Homo sapiens, UniProt Q9Y239); assay: blockers of NOD1 pathway activity – revised, SAR follow-up (AID 2333); assay type: functional
T3 sequence (Q9Y239 whole entry): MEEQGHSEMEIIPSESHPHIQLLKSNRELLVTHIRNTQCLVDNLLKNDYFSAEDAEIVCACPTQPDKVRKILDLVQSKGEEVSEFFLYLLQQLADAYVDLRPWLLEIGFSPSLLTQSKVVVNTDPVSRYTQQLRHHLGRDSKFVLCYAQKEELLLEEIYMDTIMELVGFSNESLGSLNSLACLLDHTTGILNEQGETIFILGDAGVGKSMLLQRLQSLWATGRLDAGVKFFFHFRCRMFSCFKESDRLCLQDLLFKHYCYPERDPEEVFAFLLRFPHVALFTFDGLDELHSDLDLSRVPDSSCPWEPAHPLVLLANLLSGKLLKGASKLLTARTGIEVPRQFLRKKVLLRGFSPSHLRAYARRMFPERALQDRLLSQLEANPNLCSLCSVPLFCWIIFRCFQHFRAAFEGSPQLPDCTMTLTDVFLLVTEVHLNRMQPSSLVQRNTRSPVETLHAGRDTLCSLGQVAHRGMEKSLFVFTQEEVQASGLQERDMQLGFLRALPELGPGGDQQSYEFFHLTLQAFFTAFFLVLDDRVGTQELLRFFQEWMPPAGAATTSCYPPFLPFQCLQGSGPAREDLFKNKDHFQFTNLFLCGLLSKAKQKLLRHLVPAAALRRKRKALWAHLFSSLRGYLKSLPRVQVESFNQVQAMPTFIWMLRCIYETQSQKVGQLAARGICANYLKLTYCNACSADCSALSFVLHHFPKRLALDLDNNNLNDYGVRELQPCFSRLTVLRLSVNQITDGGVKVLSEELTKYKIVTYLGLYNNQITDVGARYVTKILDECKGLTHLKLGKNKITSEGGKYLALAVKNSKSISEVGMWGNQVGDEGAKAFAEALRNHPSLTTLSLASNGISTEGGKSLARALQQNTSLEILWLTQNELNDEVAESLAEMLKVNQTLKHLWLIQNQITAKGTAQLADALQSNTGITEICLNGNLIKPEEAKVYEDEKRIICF

[10] = system: INS1; assay: INS-1E survival protection against cytokine death – cell-based, luminescence, retest, dose response (AID 449756); assay type: functional; conditions: Rattus norvegicus;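 also: cell death triggered by IL-1 beta plus TNF-alpha plus IFN-gamma mixture; protective hits raise ATP signal compared with cytokine alone wells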
[11] = system: Escherichia coli; assay: microbe, parasite or virus in culture
[12] = system: HEK293; assay: cells; assay type: functional, cell-based; conditions: Homo sapiens
[13] = target: Nucleotide-binding oligomerization domain-containing protein 2 (Homo sapiens, UniProt Q9HC29); assay: inhibition of NOD2-driven NF-kB reporter – cell-based, luminescence, uHTS, HEK293 (AID 1566); assay type: functional
[14] = system: HEK293; assay: NOD2 signaling inhibitors in MDP-stimulated cells, cell-based, uHTS, luminescence (AID 2001); assay type: functional; conditions: Homo sapiens
[15] = target: T4, Heat shock factor protein 1 (Mus musculus, UniProt P38532); assay: decrease of HSF1-responsive luciferase luminescence – cell-based, NIH3T3, dose retest, confirmation (AID 2382); assay type: functional;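 also: NIH3T3 fibroblasts with HSF1-driven luciferase reporter stressed by proteasome inhibitor MG132; luminescence from HSF1-driven luciferase expression after 8 hours of MG132 stress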
T4 sequence (P38532 whole entry): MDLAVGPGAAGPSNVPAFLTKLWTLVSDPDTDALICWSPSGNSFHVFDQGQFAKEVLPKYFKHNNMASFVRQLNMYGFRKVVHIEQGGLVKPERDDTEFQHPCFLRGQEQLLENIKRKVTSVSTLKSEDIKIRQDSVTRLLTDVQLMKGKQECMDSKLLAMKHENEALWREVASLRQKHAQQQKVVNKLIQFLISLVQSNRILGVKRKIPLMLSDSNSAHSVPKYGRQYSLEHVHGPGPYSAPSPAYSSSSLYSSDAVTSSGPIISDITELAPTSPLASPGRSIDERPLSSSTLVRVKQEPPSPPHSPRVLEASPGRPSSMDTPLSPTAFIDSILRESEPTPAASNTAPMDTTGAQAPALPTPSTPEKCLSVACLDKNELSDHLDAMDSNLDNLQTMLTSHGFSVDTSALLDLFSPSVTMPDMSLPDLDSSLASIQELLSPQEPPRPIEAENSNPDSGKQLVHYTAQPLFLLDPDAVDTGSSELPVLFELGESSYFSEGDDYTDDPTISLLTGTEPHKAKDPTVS

[16] = system: HEK293; assay: inhibition of NOD1-driven NF-kB reporter – cell-based, luminescence, uHTS, primary screen (AID 1578); assay type: functional; conditions: Homo sapiens
[17] = system: HEK293; assay: cells; assay type: functional, cell-based; conditions: Homo sapiens; remark: listed apart in the source
[18] = system: HEK293; assay: cells; assay type: functional, cell-based; conditions: Homo sapiens; remark: listed apart in the source

Chain of Tumor necrosis factor (P01375 whole entry): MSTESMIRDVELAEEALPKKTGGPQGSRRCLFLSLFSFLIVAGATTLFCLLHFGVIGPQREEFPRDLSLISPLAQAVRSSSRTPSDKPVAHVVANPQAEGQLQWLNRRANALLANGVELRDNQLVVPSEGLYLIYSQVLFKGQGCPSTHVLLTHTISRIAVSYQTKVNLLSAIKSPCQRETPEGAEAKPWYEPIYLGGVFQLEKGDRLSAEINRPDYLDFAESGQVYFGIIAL
Chain of ATP-dependent molecular chaperone HSP82 (C4YTQ8 whole entry): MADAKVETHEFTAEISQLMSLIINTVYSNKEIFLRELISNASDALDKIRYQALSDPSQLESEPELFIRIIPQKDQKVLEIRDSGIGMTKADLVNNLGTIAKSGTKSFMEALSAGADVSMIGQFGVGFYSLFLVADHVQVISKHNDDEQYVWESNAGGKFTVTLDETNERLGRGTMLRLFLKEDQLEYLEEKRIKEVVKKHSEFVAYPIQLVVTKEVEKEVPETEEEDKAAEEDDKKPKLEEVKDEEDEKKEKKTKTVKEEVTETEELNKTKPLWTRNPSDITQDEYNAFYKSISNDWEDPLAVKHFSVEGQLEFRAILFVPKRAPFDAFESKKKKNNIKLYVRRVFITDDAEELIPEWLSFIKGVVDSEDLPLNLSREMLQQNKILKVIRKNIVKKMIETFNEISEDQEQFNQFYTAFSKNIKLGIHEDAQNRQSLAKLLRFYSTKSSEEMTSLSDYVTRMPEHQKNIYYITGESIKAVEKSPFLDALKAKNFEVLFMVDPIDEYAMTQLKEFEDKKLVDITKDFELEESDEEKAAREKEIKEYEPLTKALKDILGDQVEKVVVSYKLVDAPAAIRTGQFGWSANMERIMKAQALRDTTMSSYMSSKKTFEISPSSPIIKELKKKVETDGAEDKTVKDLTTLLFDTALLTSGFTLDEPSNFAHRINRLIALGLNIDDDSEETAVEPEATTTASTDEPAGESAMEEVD
Chain of Nucleotide-binding oligomerization domain-containing protein 2 (Q9HC29 whole entry, the tested form may be a part): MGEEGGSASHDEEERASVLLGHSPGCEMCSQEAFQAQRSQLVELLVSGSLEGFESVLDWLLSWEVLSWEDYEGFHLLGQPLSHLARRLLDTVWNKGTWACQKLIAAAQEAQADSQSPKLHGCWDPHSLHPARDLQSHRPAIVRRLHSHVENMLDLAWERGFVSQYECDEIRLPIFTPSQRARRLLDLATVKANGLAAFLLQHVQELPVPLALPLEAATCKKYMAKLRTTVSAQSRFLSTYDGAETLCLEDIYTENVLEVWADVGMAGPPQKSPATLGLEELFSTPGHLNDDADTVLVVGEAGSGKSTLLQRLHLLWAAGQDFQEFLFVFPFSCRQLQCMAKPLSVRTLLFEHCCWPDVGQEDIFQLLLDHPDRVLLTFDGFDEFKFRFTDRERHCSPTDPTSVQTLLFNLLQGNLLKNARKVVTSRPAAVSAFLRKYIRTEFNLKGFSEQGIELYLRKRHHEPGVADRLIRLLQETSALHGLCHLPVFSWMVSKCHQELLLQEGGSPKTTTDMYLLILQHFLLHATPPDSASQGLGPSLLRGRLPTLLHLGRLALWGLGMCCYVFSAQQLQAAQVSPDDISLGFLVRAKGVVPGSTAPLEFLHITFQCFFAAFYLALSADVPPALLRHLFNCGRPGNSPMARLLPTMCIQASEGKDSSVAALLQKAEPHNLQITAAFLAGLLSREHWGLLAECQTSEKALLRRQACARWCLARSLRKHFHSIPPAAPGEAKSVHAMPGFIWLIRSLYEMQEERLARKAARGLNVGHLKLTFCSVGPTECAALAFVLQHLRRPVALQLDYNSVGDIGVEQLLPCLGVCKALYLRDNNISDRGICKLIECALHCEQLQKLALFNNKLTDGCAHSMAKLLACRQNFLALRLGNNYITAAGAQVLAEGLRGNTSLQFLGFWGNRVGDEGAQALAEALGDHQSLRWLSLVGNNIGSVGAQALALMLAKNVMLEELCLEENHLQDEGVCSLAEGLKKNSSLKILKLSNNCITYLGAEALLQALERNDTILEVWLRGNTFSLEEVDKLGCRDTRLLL

## CCc1cc(C(=O)NC2CCCc3c2cnn3-c2cccc(C)c2C)n(C)n1 (stereo not drawn)
[1]
  IC50: > 0.117 µM (active)
[2]
  IC50: 0.179 µM (active)
[3]
  EC50: > 180 µM (inactive)
[4]
  EC50: > 150 µM (inactive)
[5]
  IC50: > 20 µM (inactive)
[6]
  IC50: > 80 µM (inactive)
[7]
  EC50: > 150 µM (inactive)
[8]
  EC50: 0.142 µM (active)
[9]
  IC50: 0.0983 µM (active)
[10]
  AC50: < 0.195 µM (active)

## COc1ccc(C(=O)Nc2cnn(Cc3ccc(Cl)cc3)c2)cc1OC
[11]
  AC50: 96.5 µM (active)

## Cc1ccc2oc(N=C(N)NC(=O)C(C)(C)C)nc2c1
[12]
  IC50: > 20 µM (inactive)
[2]
  IC50: < 0.0391 µM (active)
[13]
  EC50: 0.01 µM (active)
[14]
  IC50: 4.71 µM (active)
[5]
  IC50: > 20 µM (inactive)
[6]
  IC50: > 80 µM (inactive)
[15]
  EC50: < 0.16 µM (active)
[16]
  EC50: < 0.31 µM (inactive)
[17]
  IC50: > 20 µM (inactive)
[9]
  IC50: 0.0949 µM (active)
[18]
  IC50: < 0.312 µM (active)

## Cc1ccc2c(CC(=O)Nc3ccc(N4CCN(C)CC4)cc3C)coc2c1
[11]
  AC50: 43.5 µM (active)
